Reference: patent publication US20130079287A1, “CAFFEOYLALPHANEOENDORPHIN PEPTIDE DERIVATIVE AND USE THEREOF AS ANTI-ITCHING AND ANTI-ATOPIC AGENTS” (priority 2011, published 2013)
Where “and” joins values, the source holds several entries; their conditions need not be identical. Equal values may be shown once. Marks after values point to notes of the source that are not given here. Each block holds one compound with its values, some of them ahead of it. Where a SMILES comes first, the peptide text is derived from it. Where no end group is shown, it is not given here. The star is where a group is joined. Caffeoyl = O=C(/C=C/c1ccc(O)c(O)c1)*

Legend:
[1] = Physical stability test under alternating temperature; type: physicochemical; settings: alternating temperature 4/20/40° C. at 8 h interval, up to 60 days, naked eye
Description: The physical stability under the condition of severe alternating temperature is an essential factor in the terms of the product property to be exposed to various external atmospheres in the case of cosmetics. The caffeoylalphaneoendorphin peptide derivative prepared from Example 1 has an increased stability to oxidation rather than that of caffeic acid in an aqueous solution. In order to confirm the increased physical stability, it was stored under the condition of alternating temperature for certain period time, and then its degradation degree was measured.
Firstly, 10,000 ppm concentration of caffeoylalphaneoendorphin peptide derivative aqueous solution was placed under the conditions of alternating temperatures, that is, low temperature (4° C.), room temperature (20° C.), and high temperature (40° C.) that were repeated at an interval of 8 hours, and then the physical stability was measured by the naked eye and HPLC Analysis for 30 days, 60 days, and 90 days.

[2] = system: peptidase derived from the cell disruption solution of keratinocyte; assay: Stability to peptidase, cell disruption solution of keratinocyte; settings: 10,000 ppm, 37° C., 6 hours
Protocol: (§1) After culturing at 37° C. for 6 hours, the residual contents were analyzed, and the existing contents were compared and evaluated on a percentage (%) to the initial existing contents.

[3] = system: peptidase derived from the cell disruption solution of fibroblast; assay: Stability to peptidase, cell disruption solution of fibroblast; settings: 10,000 ppm, 37° C., 6 hours
Protocol: as §1

[4] = system: NZW Rabbit skins; assay: Skin irritation safety test (topical toxicity); type: in vivo, New Zealand White-Rabbit; set-up: key to Erythema & Eschar score: 0: Absolutely no erythema; 1: Very light erythema (barely identifiable level with the naked eye); 2: Obvious erythema; 3: A little serious erythema; 4: Serious erythema (carrot color) and crust formation; key to clinical signs: —: Normal; settings: for clinical signs: female rabbit; for Edema score, Average / Edema score, Sum / Erythema & Eschar score, Average / Erythema & Eschar score, Sum: 6 animals
Protocol: In order to confirm the safety of caffeoyl peptide derivative according to the present invention to a human body skin when applying besides a skin that is an expected first human body application method, a topical toxicity skin irritation safety that is pre-clinical test method of pharmaceuticals was verified. The safety verification was performed by asking to Korea Research Institute of Chemical Technology that is an approved GLP Certificate Authority; the maximum application concentration range to skin irritation during topical toxicity was set at 10 mg/ml concentration, and then it was tested that irritant to a skin at the above concentration was not existed. For the above test, at least 6 of young and healthy white rabbits (New Zealand White-Rabbit, 2.0˜3.0 kg) were used. After selecting only healthy rabbits through observing a general symptom every day for 5 days during an accommodating period from an obtaining day, hairs of the abdominal regions of the selected rabbits was shaved away and then 6 rabbits with normal skins were used for test. […] An keeping environment was simply as follows: the test was performed in a rabbit keeping room in the institute by setting the temperature of 22° C., the relative humidity of 50%, a number of ventilation of 10˜15 number/hr, lighting of 12 h lights-on/12 h lights-off (08:00˜20:00), an intensity of illumination of 150˜300 Lux. For monitoring of keeping environment, whole humidity in an animal room was measured by an auto-measurer and environment conditions, such as, an intensity of illumination were regularly measured during a test period. As a result of environment measurement in an animal room, there was no change to affect to the test. The animals were kept individually in a stainless keeping box (380×480×300 mm, JungDo Industry) during accommodation, inspection, and observation periods. Feeds that was feeds for Rabbits, experiment animals, supplied from Cargillagripurina Cor. (Chonbuk, Gunsan-si Soyong dong 56-4) was freely taken by the animals, and water that was a filtered water through UV irradiation was freely taken by using a water bottle. In order to confirm the contaminant in the feeds and water, the contaminant of feeds was confirmed by receiving the feed report card according to regular test of manufacturer from a feeds supplier, and the contaminant of water was confirmed through the regular test according to applicable standard working water procedure (SOPs) of the institute.
The caffeoylalphaneoendorphin peptide derivative that was a test material prepared from Example 1 was dissolved in a concentration of 10 mg/ml (10,000 ppm), and then 0.5 ml per each animal was used by using the following method. […] The abraded skins were made to have a scratch without blood by using a needle end of syringe so that the horny layer of the skin was damaged, but the corium of the skin was not damaged. After the test materials were applied to one site of abraded skins and one site of intact skins, the sites were occlusive-patched with non-irritative tape and Coban for 24 hours. Control regions were applied with sterilized gauze wetted with sterilized distilled water by using the same method as the above (see FIG. 4).
In order to observe as to whether skin irritation was occurred, a change of general symptoms and as to whether animals were killed were observed during 72 hours after completing the application of test materials as the observation of general symptoms. In addition, the body weights per individual were measured immediately before applying the test materials and at 72 hours after applying the test materials. […] The evaluation of skin response and decision of irritant were performed based on the evaluation table of skin response as disclosed in the following Table 1. The decision of irritant content to the result was performed according to a calculation method of P.I.I. (Primary Irritation Index) by Draize, which is well used, generally (see Table 2).

[5] = test sites, abraded skin, 24 hour
[6] = test sites, abraded skin, 72 hour
[7] = test sites, intact skin, 24 hour
[8] = test sites, intact skin, 72 hour

acidification of aqueous solution (change of transparency) [1]: serious acidification
Compound: O=C(O)/C=C/c1ccc(O)c(O)c1 [caffeic acid]

Compound: YGGFLRKYPK [alphaneoendorphin]
degradation by peptidase [2]: considerably degraded | degradation by peptidase [3]: considerably degraded

Compound: CC(C)C[C@H](NC(=O)[C@H](Cc1ccccc1)NC(=O)CNC(=O)CNC(=O)[C@H](Cc1ccc(O)cc1)NC(=O)/C=C/c1ccc(O)c(O)c1)C(=O)N[C@@H](CCCNC(=N)N)C(=O)N[C@@H](CCCCN)C(=O)N[C@@H](Cc1ccc(O)cc1)C(=O)N1CCC[C@H]1C(=O)N[C@@H](CCCCN)C(=O)O [Caffeoyl (R1, R2, and R5 are hydrogen, and R3 and R4 are hydroxy)-alphaneoendorphin Peptide Derivative] (Caffeoyl-YGGFLRKYPK-OH)
degradation by peptidase [2]: almost not degraded | increase of existing contents versus alphaneoendorphin ([2]; HPLC): 6.1±1.3 times | degradation by peptidase [3]: almost not degraded | increase of existing contents versus alphaneoendorphin ([3]; HPLC): 5.9±2.1 times | Body weights ([4]; 0 hours (immediately before applying), per animal): 2237.2 g and 2511.9 g and 2684.9 g and 2408.4 g and 2478.1 g and 2347.3 g | changes of body weights of all animals ([4]; 0 to 72 hours): normally increased | Body weight gains ([4]; 0 to 72 hours, per animal): 76.2 g and 119.5 g and 103.1 g and 88.3 g and 133.6 g and 107.1 g | toxicity in skin irritation test of topical toxicity ([4]; 10 mg/ml): no toxicity | Irritant Evaluation by P.I.I. ([4]; 10 mg/ml applied over NZW Rabbit skins): none irritant | clinical signs ([4]; 10 mg/ml, 0.5 ml per animal, 0 hours after application, per animal): — | clinical signs ([4]; 10 mg/ml, 0.5 ml per animal, 24 hours after application, per animal): — | clinical signs ([4]; 10 mg/ml, 0.5 ml per animal, 48 hours after application, per animal): — | clinical signs ([4]; 10 mg/ml, 0.5 ml per animal, 72 hours after application, per animal): — | Mortality (Number of dead animals/Number of total animals) ([4]; 10 mg/ml, 0.5 ml per animal, female rabbits, 72 hours): 0/6^a | Body weights ([4]; 72 hours after application, per animal): 2313.4 g and 2631.4 g and 2788.0 g and 2496.7 g and 2611.7 g and 2454.4 g | death or unusual symptoms related to the application ([4]; during the test period): no death or unusual symptoms | P.I.I (Primary Irritation Index) ([4]; test sites, 10 mg/ml, (Sum or mean at 24 and 72 hrs)/4): 0.0 | Edema score, Average [4, 5]: 0 | Edema score, Sum [4, 5]: 0 | Erythema & Eschar score, Average [4, 5]: 0 | Erythema & Eschar score, Sum [4, 5]: 0 | Erythema & Eschar score ([4]; test sites, abraded skin, 24 hour, per animal): 0 | Edema score, Average [4, 6]: 0 | Edema score, Sum [4, 6]: 0 | Erythema & Eschar score, Average [4, 6]: 0 | Erythema & Eschar score, Sum [4, 6]: 0 | Erythema & Eschar score ([4]; test sites, abraded skin, 72 hour, per animal): 0 | Sum of Averages ([4]; test sites, erythema & eschar and edema, 24 and 72 hour): 0.0 | Edema score, Average [4, 7]: 0 | Edema score, Sum [4, 7]: 0 | Erythema & Eschar score, Average [4, 7]: 0 | Erythema & Eschar score, Sum [4, 7]: 0 | Erythema & Eschar score ([4]; test sites, intact skin, 24 hour, per animal): 0 | Edema score, Average [4, 8]: 0 | Edema score, Sum [4, 8]: 0 | Erythema & Eschar score, Average [4, 8]: 0 | Erythema & Eschar score, Sum [4, 8]: 0 | Erythema & Eschar score ([4]; test sites, intact skin, 72 hour, per animal): 0
